# Source: US6448280B1, “Angiotensin II antagonists against disorders associated with impaired neuronal conduction velocity, especially diabetic neuropathy” (Zeneca Limited, priority 1992, dated 2002)
# Assays:
# Format in all cases: in vivo
# [1] = system: saphenous nerve; assay: Sensory nerve conduction velocity in streptozotocin-diabetic rats, saphenous nerve; details: streptozotocin-diabetic male rats; 50 mg/kg daily by gavage for one month, started after one month of diabetes; groin to ankle
# Description: (§1) Using an analogous method to that described by Cameron et al in Quarterlty Journal of Experimental Physiology, 1989, 74, 917-926, mature male rats were divided into non-diabetic animals (normal control group) and animals rendered diabetic (by administration of streptozotocin (40-45 mg/kg in 20 mmol/l sodium citrate buffer, pH 4.5, i.p.). The diabetic animals were further divided into two groups. After one month, the motor nerve conduction velocities in one of the diabetic groups (diabetic control group 1) were measured in vivo between the sciatic notch and the knee for motor branches supplying the gastrocnemius and tibialis anterior muscles of the calf using the procedures described by Cameron et al (ibid) (further details of the procedures are given in Experimental Neurology, 1986, 92, 757-761). Sensory nerve conduction velocity was also measured for diabetic control group 1 in the saphenous nerve between the groin and ankle (again using the method of Cameron et al (ibid)). The remaining group of diabetic animals was further divided into two groups. One of these groups was given daily 2-ethyl-4-[(2′-(1H-1,2,3,4-tetrazol-5-yl)biphenyl-4-yl)methoxy]quinoline hydrochloride (Compound A; 50 mg/kg) by gavage, the other group remaining untreated (diabetic control group 2). […]
# [2] = system: motor branches supplying the tibialis anterior muscle (sciatic nerve); assay: Motor nerve conduction velocity in streptozotocin-diabetic rats, sciatic branch to tibialis anterior; details: streptozotocin-diabetic male rats; 50 mg/kg daily by gavage for one month, started after one month of diabetes; sciatic notch to knee
# Description: as §1
# [3] = system: motor branches supplying the gastrocnemius muscle (sciatic nerve); assay: Motor nerve conduction velocity in streptozotocin-diabetic rats, sciatic branch to gastrocnemius; details: streptozotocin-diabetic male rats; 50 mg/kg daily by gavage for one month, started after one month of diabetes; sciatic notch to knee
# Description: as §1
smiles,measurement,setting,value
"CCc1cc(OCc2ccc(-c3ccccc3-c3nnn[nH]3)cc2)c2ccccc2n1.Cl [Compound A, 2-ethyl-4-[(2′-(1H-1,2,3,4-tetrazol-5-yl)biphenyl-4-yl)methoxy]quinoline hydrochloride]",Sensory NCV Saphenous,[1],60.2 ± 1.1 m/s
same,Motor NCV Tibialis Anterior,[2],60.3 ± 1.2 m/s
same,Motor NCV Gastrocnemius,[3],62.8 ± 0.9 m/s
